# According to ChEMBL document CHEMBL4138146, “A Schmidt rearrangement-mediated synthesis of novel tetrahydro-benzo[1,4]diazepin-5-ones as potential anticancer and antiprotozoal agents” (Eur J Med Chem, 2017):
# What was measured:
# HL-60(TB) = assay: Growth inhibition of human HL-60(TB) cells assessed as cell growth at 10 uM incubated for 48 hrs by sulforhodamine B assay relative to control; assay type: functional; details: HL-60, 48 h, read-out: Activity
# K562 = assay: Growth inhibition of human K562 cells assessed as cell growth at 10 uM incubated for 48 hrs by sulforhodamine B assay relative to control; assay type: functional; details: K562, 48 h, read-out: Activity
# RPMI-8226 = assay: Growth inhibition of human RPMI8226 cells assessed as cell growth at 10 uM incubated for 48 hrs by sulforhodamine B assay relative to control; assay type: functional; details: RPMI-8226, 48 h, read-out: Activity
# SR [1] = assay: Growth inhibition of human SR cells assessed as cell growth at 10 uM incubated for 48 hrs by sulforhodamine B assay relative to control; assay type: functional; details: read-out: Activity
# EKVX = assay: Growth inhibition of human EKVX cells assessed as cell growth at 10 uM incubated for 48 hrs by sulforhodamine B assay relative to control; assay type: functional; details: read-out: Activity
# NCI-H23 = assay: Growth inhibition of human NCI-H23 cells assessed as cell growth at 10 uM incubated for 48 hrs by sulforhodamine B assay relative to control; assay type: functional; details: NCI-H23, 48 h, read-out: Activity
# NCI-H322M = assay: Growth inhibition of human NCI-H322M cells assessed as cell growth at 10 uM incubated for 48 hrs by sulforhodamine B assay relative to control; assay type: functional; details: read-out: Activity
# NCI-H460 = assay: Growth inhibition of human NCI-H460 cells assessed as cell growth at 10 uM incubated for 48 hrs by sulforhodamine B assay relative to control; assay type: functional; details: NCI-H460, 48 h, read-out: Activity
# HCT-116 = assay: Growth inhibition of human HCT116 cells assessed as cell growth at 10 uM incubated for 48 hrs by sulforhodamine B assay relative to control; assay type: functional; details: HCT-116, 48 h, read-out: Activity
# HCT-15 = assay: Growth inhibition of human HCT15 cells assessed as cell growth at 10 uM incubated for 48 hrs by sulforhodamine B assay relative to control; assay type: functional; details: HCT-15, 48 h, read-out: Activity
# SW-620 = assay: Growth inhibition of human SW620 cells assessed as cell growth at 10 uM incubated for 48 hrs by sulforhodamine B assay relative to control; assay type: functional; details: SW-620, 48 h, read-out: Activity
# SF-295 = assay: Growth inhibition of human SF295 cells assessed as cell growth at 10 uM incubated for 48 hrs by sulforhodamine B assay relative to control; assay type: functional; details: SF-295, 48 h, read-out: Activity
# M14 [2] = assay: Growth inhibition of human M14 cells assessed as cell growth at 10 uM incubated for 48 hrs by sulforhodamine B assay relative to control; assay type: functional; details: M14, 48 h, read-out: Activity
# MDA-MB-435 = assay: Growth inhibition of human MDA-MB-435 cells assessed as cell growth at 10 uM incubated for 48 hrs by sulforhodamine B assay relative to control; assay type: functional; details: MDA-MB-435, 48 h, read-out: Activity
# SK-MEL-5 = assay: Growth inhibition of human SK-MEL-5 cells assessed as cell growth at 10 uM incubated for 48 hrs by sulforhodamine B assay relative to control; assay type: functional; details: SK-MEL-5, 48 h, read-out: Activity
# OVCAR-5 = assay: Growth inhibition of human OVCAR5 cells assessed as cell growth at 10 uM incubated for 48 hrs by sulforhodamine B assay relative to control; assay type: functional; details: OVCAR-5, 48 h, read-out: Activity
# SK-OV-3 = assay: Growth inhibition of human SKOV3 cells assessed as cell growth at 10 uM incubated for 48 hrs by sulforhodamine B assay relative to control; assay type: functional; details: SK-OV-3, 48 h, read-out: Activity
# 786-0 = assay: Growth inhibition of human 786-0 cells assessed as cell growth at 10 uM incubated for 48 hrs by sulforhodamine B assay relative to control; assay type: functional; details: 786-0, 48 h, read-out: Activity
# ACHN = assay: Growth inhibition of human ACHN cells assessed as cell growth at 10 uM incubated for 48 hrs by sulforhodamine B assay relative to control; assay type: functional; details: read-out: Activity
# PC-3 = assay: Growth inhibition of human PC3 cells assessed as cell growth at 10 uM incubated for 48 hrs by sulforhodamine B assay relative to control; assay type: functional; details: PC-3, 48 h, read-out: Activity
# DU-145 = assay: Growth inhibition of human DU145 cells assessed as cell growth at 10 uM incubated for 48 hrs by sulforhodamine B assay relative to control; assay type: functional; details: DU-145, 48 h, read-out: Activity
# MCF7 = assay: Growth inhibition of human MCF7 cells assessed as cell growth at 10 uM incubated for 48 hrs by sulforhodamine B assay relative to control; assay type: functional; details: MCF7, 48 h, read-out: Activity
# T47D = assay: Growth inhibition of human T47D cells assessed as cell growth at 10 uM incubated for 48 hrs by sulforhodamine B assay relative to control; assay type: functional; details: read-out: Activity
# MDA-MB-468 = assay: Growth inhibition of human MDA-MB-468 cells assessed as cell growth at 10 uM incubated for 48 hrs by sulforhodamine B assay relative to control; assay type: functional; details: MDA-MB-468, 48 h, read-out: Activity
# UACC-257 = assay: Growth inhibition of human UACC257 cells assessed as cell growth at 10 uM incubated for 48 hrs by sulforhodamine B assay relative to control; assay type: functional; details: UACC-257, 48 h, read-out: Activity
# IGROV-1 = assay: Growth inhibition of human IGROV1 cells assessed as cell growth at 10 uM incubated for 48 hrs by sulforhodamine B assay relative to control; assay type: functional; details: IGROV-1, 48 h, read-out: Activity
# SR [3] = assay: Growth inhibition of human SR cells incubated for 48 hrs by sulforhodamine B assay; assay type: functional
# M14 [4] = assay: Growth inhibition of human M14 cells incubated for 48 hrs by sulforhodamine B assay; assay type: functional; details: M14, 48 h
# CAKI-1 = assay: Growth inhibition of human Caki1 cells incubated for 48 hrs by sulforhodamine B assay; assay type: functional; details: CAKI-1, 48 h; for CC50: read-out: LC50 (the source's name)
# U-937 = assay: Cytotoxicity against human U937 cells after 72 hrs by MTT assay; assay type: functional; details: U-937, 72 h, read-out: LC50 (the source's name)
# Plasmodium falciparum = assay: Antimalarial activity against chloroquine-sensitive Plasmodium falciparum 3D7 incubated for 48 hrs by malstat reagent based LDH release assay; assay type: functional, organism-based; details: 3D7, 48 h
# Trypanosoma cruzi = assay: Antitrypanosomal activity against Trypanosoma cruzi Tulahuen amastigote forms infected in human U937 cells after 72 hrs by beta-galactosidase reporter gene assay; assay type: functional, organism-based; details: U-937, 72 h
# Leishmania panamensis = assay: Antileishmanial activity against EpiR/GFP fused Leishmania panamensis MHOM/CO/87/UA140 intracellular amastigotes infected in human […] cells after 72 hrs by flow cytometric method; assay type: functional, organism-based; details: MHOM/CO/87/UA140, 72 h
Compound,growth at 10 µM (HL-60(TB)),growth at 10 µM (K562),growth at 10 µM (RPMI-8226),growth at 10 µM (SR [1]),growth at 10 µM (EKVX),growth at 10 µM (NCI-H23),growth at 10 µM (NCI-H322M),growth at 10 µM (NCI-H460),growth at 10 µM (HCT-116),growth at 10 µM (HCT-15),growth at 10 µM (SW-620),growth at 10 µM (SF-295),growth at 10 µM (M14 [2]),growth at 10 µM (MDA-MB-435),growth at 10 µM (SK-MEL-5),growth at 10 µM (OVCAR-5),growth at 10 µM (SK-OV-3),growth at 10 µM (786-0),growth at 10 µM (ACHN),growth at 10 µM (PC-3),other results
Cc1cccc2cc(C3CNC(=O)c4ccccc4N3)c(=O)[nH]c12 (stereo not given),116%,118%,114%,110%,98.4%,98.4%,92%,109%,95.5%,102%,110%,98.8%,98.4%,106%,102%,102%,96.9%,111%,98.6%,89.1%,growth at 10 µM (DU-145): 109%; growth at 10 µM (MCF7): 98.8%; growth at 10 µM (T47D): 93.1%; growth at 10 µM (MDA-MB-468): 107%; growth at 10 µM (UACC-257): 100%; growth at 10 µM (IGROV-1): 106%
CCCCOc1nc2ccccc2cc1C1CNC(=O)c2ccccc2N1 (stereo not given),-8.72%,12.8%,25.6%,19.8%,33%,23.8%,47.2%,6.89%,15.6%,15.3%,20.9%,-5.68%,-23.1%,-63.8%,15.6%,55.3%,14.8%,26.2%,46.7%,24.7%,growth at 10 µM (DU-145): 10.7%; growth at 10 µM (MCF7): 21.2%; growth at 10 µM (T47D): 20.9%; growth at 10 µM (MDA-MB-468): -1.81%; growth at 10 µM (UACC-257): 57.2%; growth at 10 µM (IGROV-1): 38%; GI50 (SR [3]): 1260 nM; LC50 (SR [3]): > 100 µM; TGI (SR [3]): 10.7 µM; GI50 (M14 [4]): 1540 nM; TGI (M14 [4]): 11.8 µM; CC50 (M14 [4]; read-out: LC50 (the source's name)): 92.2 µM; GI50 (CAKI-1): 2830 nM; TGI (CAKI-1): 34.4 µM; CC50 (CAKI-1): > 100 µM
O=C1NCC(c2cc3ccc(Cl)cc3[nH]c2=O)Nc2ccccc21 (stereo not given),111%,124%,119%,115%,95.2%,94%,98%,104%,87.8%,103%,107%,107%,96.8%,104%,102%,97.7%,77.8%,99.7%,101%,87.1%,growth at 10 µM (DU-145): 110%; growth at 10 µM (MCF7): 97.4%; growth at 10 µM (T47D): 66.5%; growth at 10 µM (MDA-MB-468): 96.5%; growth at 10 µM (UACC-257): 78.4%; growth at 10 µM (IGROV-1): 96.5%; CC50 (U-937): > 200 µg/mL; EC50 (Plasmodium falciparum): 59.3 µg/mL; EC50 (Trypanosoma cruzi): 86 µg/mL; EC50 (Leishmania panamensis): 77.9 µg/mL
COc1cccc2c1C(=O)c1c(O)c3c(c(O)c1C2=O)C[C@@](O)(C(=O)CO)C[C@@H]3O[C@H]1C[C@H](N)[C@H](O)[C@H](C)O1 [DOXORUBICIN],,,,,,,,,,,,,,,,,,,,,GI50 (SR [3]): 30 nM; GI50 (M14 [4]): 180 nM; GI50 (CAKI-1): 950 nM; CC50 (CAKI-1): 100 µM
